Where two headings read alike, the source gives them in different places. Each block holds one molecule with its values, some of them ahead of it.
Tests used:
CYP3A5 = CYP3A5 (Homo sapiens, UniProt P20815); assay: Metabolism with highly purified CYP3A5 (HPLC)
Protocol: (§1) A typical incubation contained rat, mouse, dog or human liver microsomes (0.4-0.5 mg of protein), 100 mM potassium phosphate buffer (pH7.4), 50 μM test compound, an NADPH-generating system consisting of 0.5 mM NADP^+, 0.5 mM glucose-6-phosphate, 1 IU/mL glucose-6-phosphate dehydrogenase, 1 mg/mL diethylenetriaminepentaaceticacid (DETAPAC), and 3 mM MgCl2 in a final incubation volume of 0.25 mL. […] After centrifugation at 3000 rpm for 5 min, the organic fraction was collected, the solvent was removed with a stream of argon and the residue was reconstituted in 125 μL of MeOH and 125 μL H2O, mixed thoroughly, centrifuged at 13,000 rpm for 5 min and analyzed by high performance liquid chromatography. Samples were run on a Hitachi D-7000 HPLC system using a L-7100 analytical pump, L-7400 UV-Visible variable wavelength detector, and L-7600 automatic sample injector. […] Disappearance of the analyte was monitored over time. A plot of the area under the curve for the normalized analyte versus time afforded the half-life values and kapp.
(§2) Accordingly, we examined the metabolism of leads with highly purified CYPs with an HPLC method (Example 8).

CYP2D6 = CYP2D6 (Homo sapiens, UniProt P10635); assay: Metabolism with highly purified CYP2D6 (HPLC)
Chain of CYP2D6 (P10635 whole entry): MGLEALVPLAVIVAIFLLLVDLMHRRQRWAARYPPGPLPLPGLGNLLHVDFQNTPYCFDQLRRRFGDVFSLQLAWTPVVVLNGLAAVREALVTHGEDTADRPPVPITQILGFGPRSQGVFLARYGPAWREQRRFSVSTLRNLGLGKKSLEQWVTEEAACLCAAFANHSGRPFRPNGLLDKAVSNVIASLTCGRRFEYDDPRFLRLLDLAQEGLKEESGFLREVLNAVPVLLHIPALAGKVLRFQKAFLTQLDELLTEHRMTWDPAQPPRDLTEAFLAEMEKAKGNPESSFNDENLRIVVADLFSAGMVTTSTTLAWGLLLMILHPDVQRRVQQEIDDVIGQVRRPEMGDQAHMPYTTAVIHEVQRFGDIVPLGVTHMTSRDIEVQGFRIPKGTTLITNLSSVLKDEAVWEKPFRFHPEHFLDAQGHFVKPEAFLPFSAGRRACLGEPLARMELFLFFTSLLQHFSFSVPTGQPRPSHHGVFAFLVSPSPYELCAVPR
Protocol: as §1, §2

CYP3A4 [1] = target: T1, CYP3A4 (Homo sapiens, UniProt P08684); details: 50 min
T1 sequence (P08684 whole entry): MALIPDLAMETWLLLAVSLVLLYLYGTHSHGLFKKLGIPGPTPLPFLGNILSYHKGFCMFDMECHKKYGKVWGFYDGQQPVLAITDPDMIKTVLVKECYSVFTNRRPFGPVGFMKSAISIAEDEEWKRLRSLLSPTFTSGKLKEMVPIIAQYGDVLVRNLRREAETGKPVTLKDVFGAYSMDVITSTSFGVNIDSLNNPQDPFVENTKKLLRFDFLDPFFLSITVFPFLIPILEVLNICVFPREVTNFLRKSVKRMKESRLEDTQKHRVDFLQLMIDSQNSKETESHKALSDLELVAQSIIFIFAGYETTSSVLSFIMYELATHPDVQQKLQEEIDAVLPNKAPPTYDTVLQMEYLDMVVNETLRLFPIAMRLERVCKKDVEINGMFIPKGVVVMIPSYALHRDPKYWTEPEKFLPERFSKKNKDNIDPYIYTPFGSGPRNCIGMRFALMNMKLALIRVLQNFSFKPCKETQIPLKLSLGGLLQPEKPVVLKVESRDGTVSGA

[2] = Metabolic stability in human liver microsomes; format: in vitro ADME
Method in brief: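 Liver microsomes (rat, mouse, dog or human; 0.4-0.5 mg protein) incubated with 50 μM compound in 100 mM potassium phosphate pH 7.4 with NADPH-generating system and 3 mM MgCl2. Parent loss followed by HPLC-UV; half-life and kapp from normalized peak area versus time.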

[3] = Metabolism in human hepatic S9
[4] = Metabolism in mouse hepatic S9; details: 0.4 mg protein/incubation; 30 mins, 37° C.; nmol metabolism/incubation
Protocol: as §1
Microsomes contain CYPs and FMO metabolic enzymes. S9 contains soluble enzymes (i.e., aldehyde oxidase, MAO, etc.).

FMO = assay: Metabolism by FMO
CYP3A4 [5] = target: T1, CYP3A4; assay: Metabolism with highly purified CYP3A4 (HPLC)
Human FMO1 = target: T2, Human FMO1 (Homo sapiens, UniProt Q01740); assay: Metabolism with human FMO1 (nmol metabolism/incubation); details: 15 μg enzyme/incubation; 30 mins, 37° C.; nmol metabolism/incubation
T2 sequence (Q01740 1-532): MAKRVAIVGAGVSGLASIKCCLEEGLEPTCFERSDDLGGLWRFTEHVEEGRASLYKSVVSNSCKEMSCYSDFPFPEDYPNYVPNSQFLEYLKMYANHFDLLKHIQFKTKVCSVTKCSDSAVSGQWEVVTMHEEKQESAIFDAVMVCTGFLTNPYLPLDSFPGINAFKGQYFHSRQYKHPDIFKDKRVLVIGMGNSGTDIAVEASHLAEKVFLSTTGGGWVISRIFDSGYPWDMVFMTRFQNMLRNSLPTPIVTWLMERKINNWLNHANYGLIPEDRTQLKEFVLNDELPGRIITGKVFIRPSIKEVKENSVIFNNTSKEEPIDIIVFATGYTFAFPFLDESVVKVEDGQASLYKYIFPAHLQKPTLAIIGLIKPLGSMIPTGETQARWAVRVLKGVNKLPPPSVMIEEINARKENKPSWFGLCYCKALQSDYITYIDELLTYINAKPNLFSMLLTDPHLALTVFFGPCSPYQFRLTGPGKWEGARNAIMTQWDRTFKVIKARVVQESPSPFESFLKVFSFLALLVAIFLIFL

Male BALBc mice = details: mice, 100 mg/kg
From the text: Male BALBc mice (20-22 g) were used throughout these studies. The animals were maintained in a temperature-controlled room with 12-hr periods of light and darkness and had continuous access to water and animal food. […] Groups contained 2-4 animals.

[6] = test system: isolated perfused aged rat heart exposed to hydrogen peroxide; assay: Aged rat heart perfusion model of arrhythmia (H2O2, ex vivo); details: 10 μM, 30 min after perfusion, continuous H2O2 (0.1 mM)
Protocol: FIG. 1. Initiation of Early After Depolarizations-Mediated Ectopic Ventricular Beats and Ventricular Fibrillation in an Isolated Perfused Aged Rat Heart Exposed to hydrogen peroxide.
Conduction velocity (CV), action potential duration (APD) and responsiveness to drugs was measured in ex-vivo rat heart preparations (FIG. 1). We chose a rat heart model to test for the effect of (R)-82 (i.e., (R)-Dd, Example 4) to decrease arrhythmias because CV and APD are preserved in buffer-perfused rat hearts up to […]. In contrast, in this model, continuous presence (perfusion) of H2O2 (0.1 mM) produces early after depolarizations (EADs) and ectopic ventricular beats 6 min after exposure that degenerates to ventricular tachycardia (VT) and ventricular fibrillation (VF) after 12 min (FIG. 1). Left untreated, the heart would die within 45 mins. […] The conclusion is that (R)-82 is more efficacious than the currently used standard of care.

Chain of CYP3A5 (P20815 whole entry): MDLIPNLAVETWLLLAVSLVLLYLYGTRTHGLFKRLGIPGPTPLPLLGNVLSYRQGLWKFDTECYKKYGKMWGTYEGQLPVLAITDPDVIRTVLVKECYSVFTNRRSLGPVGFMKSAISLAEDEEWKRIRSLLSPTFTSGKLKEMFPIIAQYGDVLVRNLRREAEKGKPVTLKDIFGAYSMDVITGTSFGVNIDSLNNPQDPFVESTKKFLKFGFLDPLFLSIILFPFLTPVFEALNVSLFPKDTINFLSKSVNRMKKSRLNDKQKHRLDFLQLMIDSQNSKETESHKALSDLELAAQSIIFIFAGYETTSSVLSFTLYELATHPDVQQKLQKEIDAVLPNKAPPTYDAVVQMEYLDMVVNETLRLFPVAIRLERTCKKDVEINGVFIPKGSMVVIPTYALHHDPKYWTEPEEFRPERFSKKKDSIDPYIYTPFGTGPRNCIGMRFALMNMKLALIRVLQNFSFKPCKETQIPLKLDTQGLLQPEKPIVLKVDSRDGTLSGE

SMILES: Cl.NC(COc1ccccc1C(F)(F)F)c1ccccc1 (racemic) [Compound 82, 1-phenyl-2-(2-(trifluoromethyl)phenoxy)ethan-1-amine]
nmols metabolized, CYP3A5 (CYP3A5; human, 50 min): 29.9 nmols
nmols/μg CYP, CYP3A5 (CYP3A5; human, 50 min): 2.13 nmols/μg CYP
pmols product/μg CYP/min, CYP3A5 (CYP3A5; human, 50 min): 42.6 pmols product/μg CYP/min
nmols metabolized, CYP2D6 (CYP2D6; human, 50 min): 29.1 nmols
nmols/μg CYP, CYP2D6 (CYP2D6; human, 50 min): 2.18 nmols/μg CYP
pmols product/μg CYP/min, CYP2D6 (CYP2D6; human, 50 min): 43.6 pmols product/μg CYP/min
nmols metabolized, CYP3A4 (CYP3A4 [1]): 10.9 nmols
nmols/μg CYP, CYP3A4 (CYP3A4 [1]): 0.77 nmols/μg CYP
pmols product/μg CYP/min, CYP3A4 (CYP3A4 [1]): 15.4 pmols product/μg CYP/min

metabolism in human liver microsomes judged by HPLC [2]: not metabolized very extensively
metabolism in human liver S-9 judged by HPLC [3]: not metabolized very extensively
Mouse liver S-9 (nmol/incub) [4]: 5.2 nmol/incub
nmols metabolized, CYP3A5 (CYP3A5; 50 min incubation): 34.2 nmols
pmols product/μg CYP/min, CYP3A5 (CYP3A5; 50 min incubation): 48.8 pmols product/μg CYP/min
nmols metabolized, CYP2D6 (CYP2D6; 50 min incubation): 4.04 nmols
pmols product/μg CYP/min, CYP2D6 (CYP2D6; 50 min incubation): 6.0 pmols product/μg CYP/min
metabolism by FMO (FMO): metabolized by FMO
Human CYP3A4 (nmol/incub) (CYP3A4 [5]; 3 pmol enzyme/incubation, 30 mins, 37° C., nmol metabolism/incubation): 3.0 nmol/incub
nmols metabolized, CYP3A4 (CYP3A4 [5]; 50 min incubation): 32.4 nmols
pmols product/μg CYP/min, CYP3A4 (CYP3A4 [5]; 50 min incubation): 46.2 pmols product/μg CYP/min
Human FMO1 (nmol/incub) (Human FMO1): 6.7 nmol/incub
SMILES: Cc1cccc(C)c1OCC(C)N (racemic) [Mexiletine, reference compound]

SMILES: Cl.NC(COc1ccccc1C(F)(F)F)c1ccccc1 (stereo in doubt) [(R)-82]
Liver Microsomes T1/2 ([2]; human, microsomes): 2.27 h
Liver S-9, remaining after 1 hr ([3]; human, s9, 1 h): >95% after 1 hr
Behavior Effect (R)-enantiomer (Male BALBc mice): No detectable effect
behavioral effects at 100 mg/kg (Male BALBc mice; enantiomers): no apparent behavioral effects
resolution of arrhythmias [6]: complete resolution of all forms of arrhythmias to normal sinus rhythm

— patent US11492325B2, “Compounds as inhibitors of sodium channels” (Human BioMolecular Research Institute, priority 2016, dated 2022)
